Data reported in the supplement of paper PMC11665569.
± gives the standard deviation of the averaged measurements.

Columns and labels:
KYSE410 = assay: relative viability (fraction of vehicle control); higher = more viable / less inhibited; conditions: treatment time: 5 days
Method: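 CCK-8 viability of KYSE410 cells transfected with control, YAP/TAZ or TEAD1-4 siRNAs and treated with KRAS G12C inhibitors for 5 days. Values are normalised to vehicle control.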

H2030 = assay: as above; conditions: treatment time: 5 days
Method: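 CCK-8 viability of H2030 cells transfected with control, YAP/TAZ or TEAD1-4 siRNAs and treated with KRAS G12C inhibitors for 5 days. Values are normalised to vehicle control.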

C=CC(=O)N1CCN(c2nc(=O)n(-c3c(C)ccnc3C(C)C)c3nc(-c4c(O)cccc4F)c(F)cc23)[C@@H](C)C1 [AMG510]
relative viability
Conditions | H2030 | KYSE410
log10 concentration (uM): 0, siRNA knockdown: TEAD1-4 siRNA 1 | 0.446 ± 0.028 | –
log10 concentration (uM): 0, siRNA knockdown: TEAD1-4 siRNA 2 | 0.411 ± 0.011 | –
log10 concentration (uM): 0, siRNA knockdown: YAP/TAZ siRNA 1 | 0.25 ± 0.031 | –
log10 concentration (uM): 0, siRNA knockdown: YAP/TAZ siRNA 2 | 0.224 ± 0.011 | –
log10 concentration (uM): 0, siRNA knockdown: negative control siRNA | 0.714 ± 0.069 | –
log10 concentration (uM): 1, siRNA knockdown: TEAD1-4 siRNA 1 | 0.345 ± 0.033 | –
log10 concentration (uM): 1, siRNA knockdown: TEAD1-4 siRNA 2 | 0.325 ± 0.014 | –
log10 concentration (uM): 1, siRNA knockdown: YAP/TAZ siRNA 1 | 0.257 ± 0.021 | –
log10 concentration (uM): 1, siRNA knockdown: YAP/TAZ siRNA 2 | 0.283 ± 0.041 | –
log10 concentration (uM): 1, siRNA knockdown: negative control siRNA | 0.56 ± 0.13 | –
log10 concentration (uM): 1.301029996, siRNA knockdown: TEAD1-4 siRNA 1 | 0.193 ± 0.064 | –
log10 concentration (uM): 1.301029996, siRNA knockdown: TEAD1-4 siRNA 2 | 0.209 ± 0.032 | –
log10 concentration (uM): 1.301029996, siRNA knockdown: YAP/TAZ siRNA 1 | 0.148 ± 0.015 | –
log10 concentration (uM): 1.301029996, siRNA knockdown: YAP/TAZ siRNA 2 | 0.179 ± 0.0071 | –
log10 concentration (uM): 1.301029996, siRNA knockdown: negative control siRNA | 0.403 ± 0.14 | –
log10 concentration (uM): -1, siRNA knockdown: TEAD1-4 siRNA 1 | 0.504 ± 0.032 | –
log10 concentration (uM): -1, siRNA knockdown: TEAD1-4 siRNA 2 | 0.556 ± 0.081 | –
log10 concentration (uM): -1, siRNA knockdown: YAP/TAZ siRNA 1 | 0.181 ± 0.025 | –
log10 concentration (uM): -1, siRNA knockdown: YAP/TAZ siRNA 2 | 0.181 ± 0.023 | –
log10 concentration (uM): -1, siRNA knockdown: negative control siRNA | 0.737 ± 0.056 | –
log10 concentration (uM): -1.30103, siRNA knockdown: TEAD1-4 siRNA 1 | 0.514 ± 0.0015 | –
log10 concentration (uM): -1.30103, siRNA knockdown: TEAD1-4 siRNA 2 | 0.445 ± 0.067 | –
log10 concentration (uM): -1.30103, siRNA knockdown: YAP/TAZ siRNA 1 | 0.207 ± 0.031 | –
log10 concentration (uM): -1.30103, siRNA knockdown: YAP/TAZ siRNA 2 | 0.212 ± 0.032 | –
log10 concentration (uM): -1.30103, siRNA knockdown: negative control siRNA | 0.773 ± 0.079 | 0.775 ± 0.015
log10 concentration (uM): -2, siRNA knockdown: TEAD1-4 siRNA 1 | 0.773 ± 0.064 | 0.946 ± 0.078
log10 concentration (uM): -2, siRNA knockdown: TEAD1-4 siRNA 2 | 0.606 ± 0.016 | 1.02 ± 0.076
log10 concentration (uM): -2, siRNA knockdown: YAP/TAZ siRNA 1 | 0.348 ± 0.061 | 0.841 ± 0.058
log10 concentration (uM): -2, siRNA knockdown: YAP/TAZ siRNA 2 | 0.333 ± 0.051 | 0.713 ± 0.012
log10 concentration (uM): -2, siRNA knockdown: negative control siRNA | 0.883 ± 0.023 | 0.884 ± 0.013
log10 concentration (uM): -2.30103, siRNA knockdown: TEAD1-4 siRNA 1 | 0.837 ± 0.039 | 0.967 ± 0.075
log10 concentration (uM): -2.30103, siRNA knockdown: TEAD1-4 siRNA 2 | 0.67 ± 0.056 | 0.941 ± 0.14
log10 concentration (uM): -2.30103, siRNA knockdown: YAP/TAZ siRNA 1 | 0.471 ± 0.014 | 0.929 ± 0.025
log10 concentration (uM): -2.30103, siRNA knockdown: YAP/TAZ siRNA 2 | 0.457 ± 0.05 | 0.7753 ± 0.0064
log10 concentration (uM): -2.30103, siRNA knockdown: negative control siRNA | 0.909 ± 0.034 | 0.9373 ± 0.0086
log10 concentration (uM): -3, siRNA knockdown: TEAD1-4 siRNA 1 | 0.939 ± 0.022 | 1.21 ± 0.052
log10 concentration (uM): -3, siRNA knockdown: TEAD1-4 siRNA 2 | 0.875 ± 0.068 | 1.19 ± 0.12
log10 concentration (uM): -3, siRNA knockdown: YAP/TAZ siRNA 1 | 0.812 ± 0.073 | 0.996 ± 0.023
log10 concentration (uM): -3, siRNA knockdown: YAP/TAZ siRNA 2 | 0.688 ± 0.1 | 0.961 ± 0.039
log10 concentration (uM): -3, siRNA knockdown: negative control siRNA | 0.969 ± 0.066 | 0.953 ± 0.019
log10 concentration (uM): -4, siRNA knockdown: TEAD1-4 siRNA 1 | 1.05 ± 0.046 | 1.08 ± 0.031
log10 concentration (uM): -4, siRNA knockdown: TEAD1-4 siRNA 2 | 0.914 ± 0.035 | 1.32 ± 0.087
log10 concentration (uM): -4, siRNA knockdown: YAP/TAZ siRNA 1 | 1.09 ± 0.037 | 1.03 ± 0.039
log10 concentration (uM): -4, siRNA knockdown: YAP/TAZ siRNA 2 | 1.04 ± 0.03 | 0.998 ± 0.016
log10 concentration (uM): -4, siRNA knockdown: negative control siRNA | 0.955 ± 0.069 | 0.951 ± 0.013
